Data reported in patent US20240189258A1, “CANCER CELL GROWTH INHIBITING COMPOSITION AND PROCESSED FOOD” (HAGIHARA FARM PRODUCTION INSTITUTE CO., LTD., priority 2021, published 2024).

How the values were obtained:
[1] = tested on: Jurkat cells; assay: Growth inhibiting activity for human leukemia T cell line Jurkat cells (Cell Count Reagent SF, cell viability); type: cell-based; details: 72 hours culture, cell viability by absorbance A450-A630
Procedure: <2. Evaluation of growth inhibiting activity of compounds for human leukemia T cell line Jurkat cells>
The cancer cell growth-inhibiting activity of each sample described above was examined using Jurkat cells, which are from a human leukemia T cell line.
In each well of a 96-well plate, 50 μL of a Jurkat cell suspension prepared at 1×10^5 cells/mL was seeded. A DMSO solution of the evaluation sample was diluted 500 times with the culture medium. Immediately after that, 50 μL of the diluted sample solution was added to the cells to start a cell treatment. After the samples were stirred for 30 seconds using a microplate reader, the cells were cultured in an incubator. After 72 hours, 10 μL of Cell Count Reagent SF was added to each well. After a color reaction was performed in the incubator for 2 to 3 hours, the absorbance at 450 nm and 630 nm was measured using a microplate reader. Cell viability was determined using the following formula (F1).
Cell viability (%)=[(As−Ab)/(Ac−Ab)]×100 (F1)
Note that As, Ab, and Ac are as follows. • As: absorbance of evaluation well • Ab: absorbance of negative control well • Ac: absorbance of control well
All the “absorbance” values in the above-described formula were calculated by subtracting the absorbance at 630 nm (referred to as A630) from the absorbance at 450 nm (referred to as A450) , that is, “A450-A630”. Further, IC50 was calculated by linear approximation on a logarithmic graph using two concentrations that most tightly enclose the 50% cell viability point.

| SMILES | IC50 ([1]; Homo sapiens) | melting point | IC50 [1] |
| --- | --- | --- | --- |
| C/C(=C\CNC(C)C)CCC[C@H](C)CCC[C@H](C)CCCC(C)C (racemic) [PT22, (7RS,11RS,E)-1-isopropylamino-3,7,11,15-tetramethyl-2-hexadecene] | 2600 nM |  |  |
| C/C(=C\CO)CCC[C@H](C)CCC[C@H](C)CCCC(C)C (racemic) [rac-PTO, phytol, reference compound] |  |  | 29800 nM |
| C/C(=C\C[N+](C)(C)C)CCC[C@H](C)CCC[C@H](C)CCCC(C)C.[Br-] (racemic) [PT26, (7RS,11RS,E)-N,N,N-trimethyl-3,7,11,15-tetramethyl-2-hexadecenaminium bromide] | 1410 nM | 199 to 201 °C |  |
| C/C(=C\Cn1c(N)ccnc1=O)CCC[C@H](C)CCC[C@H](C)CCCC(C)C (racemic) [PT28, 6-amino-1-((7R,11R,E)-3,7,11,15-tetramethyl-2-hexadecenyl)pyrimidin-2(1H)-one] | 3200 nM | 101 to 102 °C |  |
| C/C(=C\CN)CCC[C@H](C)CCC[C@H](C)CCCC(C)C (racemic) [rac-PT10, (7R,11R,E)-1-amino-3,7,11,15-tetramethyl-2-hexadecene, reference compound] | 3800 nM |  |  |

Now from value to compound:

| IC50 ([1]; Homo sapiens) | melting point | IC50 [1] | SMILES |
| --- | --- | --- | --- |
| 480 nM | 132 to 135 °C |  | CC[N+](CC)(CC)C/C=C(\C)CCC[C@H](C)CCC[C@H](C)CCCC(C)C.[Br-] (racemic) [PT27, (7RS,11RS,E)-N,N,N-triethyl-3,7,11,15-tetramethyl-2-hexadecenaminium bromide] |
| 3100 nM |  |  | C/C(=C\CNC(C)(C)C)CCC[C@H](C)CCC[C@H](C)CCCC(C)C (racemic) [PT23, (7RS,11RS,E)-1-t-butylamino-3,7,11,15-tetramethyl-2-hexadecene] |
| 2800 nM |  |  | C/C(=C\CN(C)C)CCC[C@H](C)CCC[C@H](C)CCCC(C)C (racemic) [PT21, (7RS,11RS,E)-1-N,N-dimethylamino-3,7,11,15-tetramethyl-2-hexadecene] |
